The target in the experiment is T1, EHMT1 (Homo sapiens, UniProt Q9H9B1).
T1 construct: endogenous in cells; host or cells: PBMC from healthy blood donors, cell extract
T1 sequence (Q9H9B1 1-1298): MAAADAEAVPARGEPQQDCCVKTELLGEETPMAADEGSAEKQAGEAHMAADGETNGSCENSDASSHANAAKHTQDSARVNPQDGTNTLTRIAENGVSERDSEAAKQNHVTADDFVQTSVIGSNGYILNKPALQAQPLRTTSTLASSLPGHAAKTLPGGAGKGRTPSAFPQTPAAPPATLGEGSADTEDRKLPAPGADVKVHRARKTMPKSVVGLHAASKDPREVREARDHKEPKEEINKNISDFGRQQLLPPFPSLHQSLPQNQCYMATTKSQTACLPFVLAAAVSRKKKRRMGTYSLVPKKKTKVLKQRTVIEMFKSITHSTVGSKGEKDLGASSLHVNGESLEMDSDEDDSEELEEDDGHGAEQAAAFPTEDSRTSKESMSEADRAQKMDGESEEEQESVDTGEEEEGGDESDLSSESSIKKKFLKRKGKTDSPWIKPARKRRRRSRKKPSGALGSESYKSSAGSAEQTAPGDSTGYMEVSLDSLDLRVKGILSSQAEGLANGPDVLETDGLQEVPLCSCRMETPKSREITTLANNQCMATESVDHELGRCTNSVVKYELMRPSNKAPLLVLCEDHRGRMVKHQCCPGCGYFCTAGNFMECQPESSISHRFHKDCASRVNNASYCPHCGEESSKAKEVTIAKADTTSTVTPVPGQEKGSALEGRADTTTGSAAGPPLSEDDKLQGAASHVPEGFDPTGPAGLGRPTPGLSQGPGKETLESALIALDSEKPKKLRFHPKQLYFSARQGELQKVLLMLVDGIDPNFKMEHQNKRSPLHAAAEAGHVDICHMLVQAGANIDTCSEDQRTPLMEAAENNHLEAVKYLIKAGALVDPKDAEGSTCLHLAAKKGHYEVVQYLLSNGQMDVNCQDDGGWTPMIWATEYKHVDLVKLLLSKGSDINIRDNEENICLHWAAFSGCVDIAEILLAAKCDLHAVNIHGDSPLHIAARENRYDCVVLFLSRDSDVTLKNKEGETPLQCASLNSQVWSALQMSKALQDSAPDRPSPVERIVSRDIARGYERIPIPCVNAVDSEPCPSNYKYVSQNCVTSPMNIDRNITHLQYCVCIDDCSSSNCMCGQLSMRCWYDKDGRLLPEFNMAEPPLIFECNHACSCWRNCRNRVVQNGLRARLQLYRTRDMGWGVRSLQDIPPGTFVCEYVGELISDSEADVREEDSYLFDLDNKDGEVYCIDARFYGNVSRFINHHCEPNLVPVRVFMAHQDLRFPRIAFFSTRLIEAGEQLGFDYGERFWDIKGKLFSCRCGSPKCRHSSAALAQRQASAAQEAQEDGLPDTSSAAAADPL
Description: Competitive affinity-based chemoproteomics (UNC0965 matrix), PBMC cell extract. Format: binding. As to conditions: 20 µM competitor; for FC vs DMSO (log2 competition), EHMT1: n=2. The protocol:
described.[2] Lysates were precleared with bead slurry (100 μL) for 30 min at 4 °C and then treated with UNC0638 or UNC0737 (20 μM) or DMSO control for 30 min at 4 °C followed by incubation with affinity matrix for 2 h at 4 °C. Affinity matrices were washed with buffer A (5 mL) and proteins eluted with 100 μL of 2x Laemmli sample buffer, 100 mM DTT, in PBS and heating for 10 min at 90 °C.
Eluents (70 µL) were diluted in 0.1 M Tris (pH 7.8) to 200 µL, reduced with 5 mM DTT for 30 min at RT, and alkylated with 20 mM iodoacetamide for 30 min at RT in the dark. Proteins were precipitated by sequential addition of MeOH (600 µL), CHCl3 (150 µL) and H2O (450 µL), pelleted (17,000 × g, 5 min), washed with further MeOH (2 × 600 µL), and re-pelleted. Air dried pellets were resuspended in 50 μL 6 M urea (pH 7.8) by vortexing and then diluted with 250 μL H2O before adding 1 µg trypsin for overnight incubation at 37 °C. The digests were acidified with FA (1% v/v final concentration), desalted using SOLA HRP SPE Cartridges (Thermo Fisher), eluted with 69% v/v MeCN, 0.1% v/v FA in H2O (600 μL) and dried in vacuo. Dried peptides were stored at -20 °C before resuspension in 2% v/v MeCN, 0.1% v/v FA in H2O (20 μL) for LC-MS/MS analysis.
LC-MS/MS Data Acquisition
Digested samples were analysed by nano-UPLC–MS/MS using a Dionex Ultimate 3000 nano UPLC fitted with an EASY spray column (75 μm × 500 mm, 2 μm particle size, Thermo Scientific), coupled to an Orbitrap Q Exactive instrument. A 60 min gradient of 0.1% (v/v) formic acid in 5 % (v/v) DMSO to 0.1% (v/v) formic acid with 35% (v/v) acetonitrile in 5 % (v/v) DMSO at a flow rate of 250 nL min−1 was used. The instrument was operated in a data-dependant mode, with survey scans acquired at a resolution of 70,000 at 200 m/z and the 15 most abundant precursors selected for HCD fragmentation with an AGC target of […] ions.
Raw data was processed using MaxQuant[3] version 2.0.1.0 and the reference complete human proteome FASTA file (UniProt, downloaded 05.08.21). Label Free Quantification (LFQ) and Match Between Runs were selected; Cysteine carbamidomethylation was selected as a fixed modification, and methionine oxidation and asparagine deamidation as variable modifications. Default settings for identification and quantification were used. Specifically, a minimum peptide length of 7, a maximum of 2 missed cleavage sites, and a maximum of 5 labelled amino acids per peptide were allowed.
Through selection of the ‘trypsin/P’ general setting, peptide bond cleavage at arginine or lysine (followed by any amino acid) was considered during in silico digest of the reference proteome. The allowed precursor and fragment ion mass tolerances were 4.5 ppm and 20 ppm, respectively. Peptides and proteins were identified utilizing a 0.01 false discovery rate, with “unique and razor peptides” […]
mode selected for both identification and quantification of proteins (razor peptides are uniquely assigned to protein groups and not to individual proteins).

Regarding `COc1cc2c(NC3CCN(C(C)C)CC3)nc(C3CCCCC3)nc2cc1OCCCN1CCCC1` [UNC0638], the “EHMT1 (GLP) binding to the matrix” value was “reduced binding to the matrix” and the “FC vs DMSO (log2 competition), EHMT1” value was -2.05.

On to `COc1cc2c(N(C)C3CCN(C(C)C)CC3)nc(C3CCCCC3)nc2cc1OCCCN1CCCC1` [UNC0737], for which the “FC vs DMSO (log2 competition), EHMT1” value turned out to be 0.1524.

Values taken from article PMC11811597, “Phenomics‐Based Discovery of Novel Orthosteric Choline Kinase Inhibitors” (Angewandte Chemie (International Ed. in English), 2025).
